10 compounds from patent publication US20260193271A1, “PAN-KRAS INHIBITOR COMPOUND” (ADLAI NORTYE BIOPHARMA CO., LTD., priority 2022, published 2026) can be followed below.

The test system of one test is AsPC-1 (G12D). Briefly: In vitro cell proliferation inhibition test (CellTiter-Glo), AsPC-1. The class given is cell-based. Conditions: KRAS (p.G12D), 72 h co-incubation. In outline: (§1)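 IC50 was derived by four-parameter fitting of normalized CellTiter-Glo signals. These were measured after 72 h co-incubation with compound at 10 concentrations, 3-fold serial, final maximum 10 μM. Plating was 1000-5000 cells/well, adjusted to growth rate, with overnight attachment at 37 °C, 5% CO2.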
In general terms: Cellular ATP, detected with luciferase, serves as a proxy for viable cell number.

The next test relates to SW480 (G12V). The test is described as follows: In vitro cell proliferation inhibition test (CellTiter-Glo), SW480. The class given is cell-based. Conditions: SW480 colon cell line, KRAS (p.G12V), 72 h co-incubation. The method in brief:
as §1

As to `CCn1c(-c2cc(-c3cnn(CC4CCCN4C)c3)cnc2C(C)OC)c2c3cc(ccc31)-c1csc(n1)CC(NC(=O)C1C(C)C1C)C(=O)N1CCCC(N1)C(=O)OCC(C)(C)C2` [Compound 62, (1r,2R,3S)-N-((6^3S,4S,Z)-1^1-ethyl-1^2-(2-((S)-1-methoxyethyl)-5-(1-(((R)-1-methylpyrrolidin-2-yl)methyl)-1H-pyrazol-4-yl)pyridin-3-yl)-10,10-dimethyl-5,7-dioxo-6^1,6^2,6^3,6^4,6^5,6^6-hexahydro-1^1H-8-oxa-2(4,2)-thiazola-1(5,3)-indola-6(1,3)-pyridazinacycloundecaphane-4-yl)-2,3-dimethylcyclopropane-1-carboxamide], the figures for the IC50 with AsPC-1 (G12D) (AsPC-1 pancreas cell line) and in the test with SW480 (G12V) were 0.54 nM and 3.9 nM, respectively.

In the case of `CCn1c(-c2cc(-c3cn(CC4CCN(C)CC4)nn3)cnc2C(C)OC)c2c3cc(ccc31)-c1csc(n1)C[C@H](NC(=O)[C@H]1C[C@@H]1C)C(=O)N1CCC[C@H](N1)C(=O)OCC(C)(C)C2` (stereo partly drawn) [Compound 65, (1S,2S)-N-((6^3S,4S,Z)-1^1-ethyl-1^2-(2-((S)-1-methoxyethyl)-5-(1-((1-methylpiperidin-4-yl)methyl)-1H-1,2,3-triazol-4-yl)pyridin-3-yl)-10,10-dimethyl-5,7-dioxo-6^1,6^2,6^3,6^4,6^5,6^6-hexahydro-1^1H-8-oxa-2(4,2)-thiazola-1(5,3)-indola-6(1,3)-pyridazinacycloundecaphane-4-yl)-2-methylcyclopropane-1-carboxamide], the IC50 – broadly, the point on the concentration scale where inhibition reaches its midpoint – turned out to be 12 nM in the test with AsPC-1 (G12D) (Homo sapiens, ASPC1, AsPC-1 pancreas cell line) and 150 nM in the test on SW480 (G12V) (Homo sapiens).

For the compound “(1S,2S)-N-((6^3S,4S,Z)-1^1-ethyl-1^2-(2-((S)-1-methoxyethyl)-5-(1-((R)-1-methylpyrrolidin-3-yl)-1H-pyrazol-4-yl)pyridin-3-yl)-10,10-dimethyl-5,7-dioxo-6^1,6^2,6^3,6^4,6^5,6^6-hexahydro-1^1H-8-oxa-2(4,2)-thiazola-1(5,3)-indola-6(1,3)-pyridazinacycloundecaphane-4-yl)-2-methylcyclopropane-1-carboxamide [Compound 16′]”, the figures for the IC50 in the test with AsPC-1 (G12D) (AsPC-1 pancreas cell line) and with SW480 (G12V) were 2280 nM and 265 nM, respectively.

“(1S,2S)-N-((6^3S,4S,Z)-1^1-ethyl-1^2-(2-((S)-1-methoxyethyl)-5-(5-(morpholinomethyl)pyrimidin-2-yl)pyridin-3-yl)-10,10-dimethyl-5,7-dioxo-6^1,6^2,6^3,6^4,6^5,6^6-hexahydro-1^1H-8-oxa-2(4,2)-thiazola-1(5,3)-indola-6(1,3)-pyridazinacycloundecaphane-4-yl)-2-methylcyclopropane-1-carboxamide [Compound 14′]”: the IC50 in the test with AsPC-1 (G12D) (AsPC-1 pancreas cell line) came to 1180 nM; in the test on SW480 (G12V), 633 nM.

Turning to “(1S,2S)-N-((6^3S,4S,Z)-1^1-ethyl-1^2-(6′-((S)-1-methoxyethyl)-4-(morpholinomethyl)-[2,3′-bipyridin]-5′-yl)-10,10-dimethyl-5,7-dioxo-6^1,6^2,6^3,6^4,6^5,6^6-hexahydro-1^1H-8-oxa-2(4,2)-thiazola-1(5,3)-indola-6(1,3)-pyridazinacycloundecaphane-4-yl)-2-methylcyclopropane-1-carboxamide [Compound 11′]”, the IC50 in the test on AsPC-1 (G12D) (AsPC-1 pancreas cell line) came out at 242 nM; in the test with SW480 (G12V), 346 nM.

In the case of “(1S,2S)-N-((6^3S,4S,Z)-1^1-ethyl-1^2-(6′-((S)-1-methoxyethyl)-5-(morpholinomethyl)-[2,3′-bipyridin]-5′-yl)-10,10-dimethyl-5,7-dioxo-6^1,6^2,6^3,6^4,6^5,6^6-hexahydro-1^1H-8-oxa-2(4,2)-thiazola-1(5,3)-indola-6(1,3)-pyridazinacycloundecaphane-4-yl)-2-methylcyclopropane-1-carboxamide [Compound 12′]”, the IC50 with AsPC-1 (G12D) (AsPC-1 pancreas cell line) turned out to be 814 nM; in the test on SW480 (G12V), 319 nM.

Take “(1S,2S)-N-((6^3S,4S,Z)-1^1-ethyl-1^2-(6′-((S)-1-methoxyethyl)-6-(morpholinomethyl)-[2,3′-bipyridin]-5′-yl)-10,10-dimethyl-5,7-dioxo-6^1,6^2,6^3,6^4,6^5,6^6-hexahydro-1^1H-8-oxa-2(4,2)-thiazola-1(5,3)-indola-6(1,3)-pyridazinacycloundecaphane-4-yl)-2-methylcyclopropane-1-carboxamide [Compound 13′]”: the IC50 in the test with AsPC-1 (G12D) (AsPC-1 pancreas cell line) was determined as 302 nM; with SW480 (G12V), 236 nM.

On to “(1r,2R,3S)-N-((6^3S,4S,Z)-1^1-ethyl-1^2-(2-((S)-1-methoxyethyl)-5-(1-(1-methylazetidin-3-yl)-1H-pyrazol-4-yl)pyridin-3-yl)-10,10-dimethyl-5,7-dioxo-6^1,6^2,6^3,6^4,6^5,6^6-hexahydro-1^1H-8-oxa-2(4,2)-thiazola-1(5,3)-indola-6(1,3)-pyridazinacycloundecaphane-4-yl)-2,3-dimethylcyclopropane-1-carboxamide [Compound 17′]”, for which the IC50 was 697 nM with AsPC-1 (G12D) (AsPC-1 pancreas cell line) and 85 nM in the test with SW480 (G12V).

With “(1r,2R,3S)-N-((6^3S,4S,Z)-1^1-ethyl-1^2-(2-((S)-1-methoxyethyl)-5-(1-(2-(4-methylpiperazin-1-yl)ethyl)-1H-pyrazol-4-yl)pyridin-3-yl)-10,10-dimethyl-5,7-dioxo-6^1,6^2,6^3,6^4,6^5,6^6-hexahydro-1^1H-8-oxa-2(4,2)-thiazola-1(5,3)-indola-6(1,3)-pyridazinacycloundecaphane-4-yl)-2,3-dimethylcyclopropane-1-carboxamide [Compound 19′]”, the values for the IC50 in the test on AsPC-1 (G12D) (AsPC-1 pancreas cell line) and with SW480 (G12V) were 33 nM and 16 nM, respectively.

On to “(1r,2R,3S)-N-((63S,4S,Z)-1^1-(2,2-difluoroethyl)-1^2-(2-((S)-1-methoxyethyl)-5-(2-(morpholinomethyl)pyrimidin-5-yl)pyridin-3-yl)-10,10-dimethyl-5,7-dioxo-6^1,6^2,6^3,6^4,6^5,6^6-hexahydro-1^1H-8-oxa-2(4,2)-thiazola-1(5,3)-indola-6(1,3)-pyridazinacycloundecaphane-4-yl)-2,3-dimethylcyclopropane-1-carboxamide [Compound 48]”, for which the IC50 turned out to be 0.54 nM with AsPC-1 (G12D) (AsPC-1 pancreas cell line) and 0.51 nM in the test on SW480 (G12V).
